Measurements published in patent US20250255867A1 (Kadmon Corporation, LLC, priority 2022, published 2025).

Settings: Cohort 1 200 mg QD

CC(C)NC(=O)COc1cccc(-c2nc(Nc3ccc4[nH]ncc4c3)c3ccccc3n2)c1 [Belumosudil, 2-{3-[4-(1H-indazol-5-ylamino)-2-quinazolinyl]phenoxy}-N-(propan-2-yl) acetamide]
Hypogonadism: # Events: 1
Hypogonadism: Affected/At Risk: 1/17
Hypogonadism: Affected/At Risk (%): (5.88%)
Hypokalaemia: # Events: 1
Hypokalaemia: Affected/At Risk: 1/17
Hypokalaemia: Affected/At Risk (%): (5.88%)
Hypomagnesaemia: # Events: 1
Hypomagnesaemia: Affected/At Risk: 1/17
Hypomagnesaemia: Affected/At Risk (%): (5.88%)
Hyponatraemia: # Events: 1
Hyponatraemia: Affected/At Risk: 1/17
Hyponatraemia: Affected/At Risk (%): (5.88%)
Hypophosphataemia: # Events: 1
Hypophosphataemia: Affected/At Risk: 1/17
Hypophosphataemia: Affected/At Risk (%): (5.88%)
Hypothermia: # Events: 0
Hypothermia: Affected/At Risk: 0/17
Hypothermia: Affected/At Risk (%): (0%)
Hypothyroidism: # Events: 2
Hypothyroidism: Affected/At Risk: 1/17
Hypothyroidism: Affected/At Risk (%): (5.88%)
Hypoxia: # Events: 1
Hypoxia: Affected/At Risk: 1/17
Hypoxia: Affected/At Risk (%): (5.88%)
Impaired healing: # Events: 1
Impaired healing: Affected/At Risk: 1/17
Impaired healing: Affected/At Risk (%): (5.88%)
Influenza like illness: # Events: 1
Influenza like illness: Affected/At Risk: 1/17
Influenza like illness: Affected/At Risk (%): (5.88%)
Influenza: # Events: 2
Influenza: Affected/At Risk: 2/17
Influenza: Affected/At Risk (%): (11.76%)
Insomnia: # Events: 0
Insomnia: Affected/At Risk: 0/17
Insomnia: Affected/At Risk (%): (0%)
Irritability: # Events: 1
Irritability: Affected/At Risk: 1/17
Irritability: Affected/At Risk (%): (5.88%)
Joint range of motion decreased: # Events: 0
Joint range of motion decreased: Affected/At Risk: 0/17
Joint range of motion decreased: Affected/At Risk (%): (0%)
Lacrimation increased: # Events: 0
Lacrimation increased: Affected/At Risk: 0/17
Lacrimation increased: Affected/At Risk (%): (0%)
Leukaemia recurrent: # Events: 1
Leukaemia recurrent: Affected/At Risk: 1/17
Leukaemia recurrent: Affected/At Risk (%): (5.88%)
Leukocytosis: # Events: 1
Leukocytosis: Affected/At Risk: 1/17
Leukocytosis: Affected/At Risk (%): (5.88%)
Ligament sprain: # Events: 1
Ligament sprain: Affected/At Risk: 1/17
Ligament sprain: Affected/At Risk (%): (5.88%)
Limb injury: # Events: 1
Limb injury: Affected/At Risk: 1/17
Limb injury: Affected/At Risk (%): (5.88%)
Macular degeneration: # Events: 0
Macular degeneration: Affected/At Risk: 0/17
Macular degeneration: Affected/At Risk (%): (0%)
Migraine: # Events: 0
Migraine: Affected/At Risk: 0/17
Migraine: Affected/At Risk (%): (0%)
Muscle spasms: # Events: 1
Muscle spasms: Affected/At Risk: 1/17
Muscle spasms: Affected/At Risk (%): (5.88%)
Muscle spasticity: # Events: 1
Muscle spasticity: Affected/At Risk: 1/17
Muscle spasticity: Affected/At Risk (%): (5.88%)
Muscular weakness: # Events: 6
Muscular weakness: Affected/At Risk: 4/17
Muscular weakness: Affected/At Risk (%): (23.53%)
Musculoskeletal chest pain: # Events: 1
Musculoskeletal chest pain: Affected/At Risk: 1/17
Musculoskeletal chest pain: Affected/At Risk (%): (5.88%)
Myalgia: # Events: 2
Myalgia: Affected/At Risk: 1/17
Myalgia: Affected/At Risk (%): (5.88%)
Nail disorder: # Events: 1
Nail disorder: Affected/At Risk: 1/17
Nail disorder: Affected/At Risk (%): (5.88%)
Nasal congestion: # Events: 3
Nasal congestion: Affected/At Risk: 3/17
Nasal congestion: Affected/At Risk (%): (17.65%)
Nausea: # Events: 10
Nausea: Affected/At Risk: 6/17
Nausea: Affected/At Risk (%): (35.29%)
Neck pain: # Events: 1
Neck pain: Affected/At Risk: 1/17
Neck pain: Affected/At Risk (%): (5.88%)
Nephrotic syndrome: # Events: 1
Nephrotic syndrome: Affected/At Risk: 1/17
Nephrotic syndrome: Affected/At Risk (%): (5.88%)
Neuropathy peripheral: # Events: 0
Neuropathy peripheral: Affected/At Risk: 0/17
Neuropathy peripheral: Affected/At Risk (%): (0%)
Neutrophil count decreased: # Events: 1
Neutrophil count decreased: Affected/At Risk: 1/17
Neutrophil count decreased: Affected/At Risk (%): (5.88%)
Nocturia: # Events: 1
Nocturia: Affected/At Risk: 1/17
Nocturia: Affected/At Risk (%): (5.88%)
Non-cardiac chest pain: # Events: 0
Non-cardiac chest pain: Affected/At Risk: 0/17
Non-cardiac chest pain: Affected/At Risk (%): (0%)
Obesity: # Events: 2
Obesity: Affected/At Risk: 2/17
Obesity: Affected/At Risk (%): (11.76%)
Oedema peripheral: # Events: 3
Oedema peripheral: Affected/At Risk: 3/17
Oedema peripheral: Affected/At Risk (%): (17.65%)
Oedema: # Events: 0
Oedema: Affected/At Risk: 0/17
Oedema: Affected/At Risk (%): (0%)
Oesophageal ulcer: # Events: 0
Oesophageal ulcer: Affected/At Risk: 0/17
Oesophageal ulcer: Affected/At Risk (%): (0%)
Oral candidiasis: # Events: 3
Oral candidiasis: Affected/At Risk: 2/17
Oral candidiasis: Affected/At Risk (%): (11.76%)
Oropharyngeal pain: # Events: 1
Oropharyngeal pain: Affected/At Risk: 1/17
Oropharyngeal pain: Affected/At Risk (%): (5.88%)
Orthopnoea: # Events: 1
Orthopnoea: Affected/At Risk: 1/17
Orthopnoea: Affected/At Risk (%): (5.88%)
Osteonecrosis: # Events: 1
Osteonecrosis: Affected/At Risk: 1/17
Osteonecrosis: Affected/At Risk (%): (5.88%)
Osteopenia: # Events: 0
Osteopenia: Affected/At Risk: 0/17
Osteopenia: Affected/At Risk (%): (0%)
Osteoporosis: # Events: 0
Osteoporosis: Affected/At Risk: 0/17
Osteoporosis: Affected/At Risk (%): (0%)
Overdose: # Events: 1
Overdose: Affected/At Risk: 1/17
Overdose: Affected/At Risk (%): (5.88%)
Pain in extremity: # Events: 2
Pain in extremity: Affected/At Risk: 2/17
Pain in extremity: Affected/At Risk (%): (11.76%)
Pain: # Events: 3
Pain: Affected/At Risk: 3/17
Pain: Affected/At Risk (%): (17.65%)
Palpitations: # Events: 1
Palpitations: Affected/At Risk: 1/17
Palpitations: Affected/At Risk (%): (5.88%)
Paraesthesia: # Events: 0
Paraesthesia: Affected/At Risk: 0/17
Paraesthesia: Affected/At Risk (%): (0%)
Participants with TEAE: 17 (100%) participants
Participants with TESAE: 5 (29%) participants
Pericardial effusion: # Events: 1
Pericardial effusion: Affected/At Risk: 1/17
Pericardial effusion: Affected/At Risk (%): (5.88%)
Peripheral coldness: # Events: 1
Peripheral coldness: Affected/At Risk: 1/17
Peripheral coldness: Affected/At Risk (%): (5.88%)
Peripheral sensory neuropathy: # Events: 0
Peripheral sensory neuropathy: Affected/At Risk: 0/17
Peripheral sensory neuropathy: Affected/At Risk (%): (0%)
Phlebitis: # Events: 0
Phlebitis: Affected/At Risk: 0/17
Phlebitis: Affected/At Risk (%): (0%)
Photophobia: # Events: 0
Photophobia: Affected/At Risk: 0/17
Photophobia: Affected/At Risk (%): (0%)
Platelet count decreased: # Events: 3
Platelet count decreased: Affected/At Risk: 1/17
Platelet count decreased: Affected/At Risk (%): (5.88%)
Pleural effusion: # Events: 1
Pleural effusion: Affected/At Risk: 1/17
Pleural effusion: Affected/At Risk (%): (5.88%)
Pneumonia respiratory syncytial viral: # Events: 0
Pneumonia respiratory syncytial viral: Affected/At Risk: 0/17
Pneumonia respiratory syncytial viral: Affected/At Risk (%): (0%)
Pneumonia: # Events: 2
Pneumonia: Affected/At Risk: 1/17
Pneumonia: Affected/At Risk (%): (5.88%)
Pollakiuria: # Events: 1
Pollakiuria: Affected/At Risk: 1/17
Pollakiuria: Affected/At Risk (%): (5.88%)
Presyncope: # Events: 0
Presyncope: Affected/At Risk: 0/17
Presyncope: Affected/At Risk (%): (0%)
Productive cough: # Events: 2
Productive cough: Affected/At Risk: 2/17
Productive cough: Affected/At Risk (%): (11.76%)
Proteinuria: # Events: 2
Proteinuria: Affected/At Risk: 2/17
Proteinuria: Affected/At Risk (%): (11.76%)
Pruritus: # Events: 1
Pruritus: Affected/At Risk: 1/17
Pruritus: Affected/At Risk (%): (5.88%)
Pseudomonas infection: # Events: 1
Pseudomonas infection: Affected/At Risk: 1/17
Pseudomonas infection: Affected/At Risk (%): (5.88%)
Pulmonary mass: # Events: 0
Pulmonary mass: Affected/At Risk: 0/17
Pulmonary mass: Affected/At Risk (%): (0%)
Pyrexia: # Events: 3
Pyrexia: Affected/At Risk: 1/17
Pyrexia: Affected/At Risk (%): (5.88%)
Rash erythematous: # Events: 0
Rash erythematous: Affected/At Risk: 0/17
Rash erythematous: Affected/At Risk (%): (0%)
Rash maculo-papular: # Events: 2
Rash maculo-papular: Affected/At Risk: 2/17
Rash maculo-papular: Affected/At Risk (%): (11.76%)
Rash pustular: # Events: 0
Rash pustular: Affected/At Risk: 0/17
Rash pustular: Affected/At Risk (%): (0%)
Rash: # Events: 2
Rash: Affected/At Risk: 1/17
Rash: Affected/At Risk (%): (5.88%)
Red blood cells urine positive: # Events: 0
Red blood cells urine positive: Affected/At Risk: 0/17
Red blood cells urine positive: Affected/At Risk (%): (0%)
Renal failure: # Events: 0
Renal failure: Affected/At Risk: 0/17
Renal failure: Affected/At Risk (%): (0%)
Respiratory syncytial virus infection: # Events: 0
Respiratory syncytial virus infection: Affected/At Risk: 0/17
Respiratory syncytial virus infection: Affected/At Risk (%): (0%)
Respiratory tract infection fungal: # Events: 1
Respiratory tract infection fungal: Affected/At Risk: 1/17
Respiratory tract infection fungal: Affected/At Risk (%): (5.88%)
Respiratory tract infection: # Events: 1
Respiratory tract infection: Affected/At Risk: 1/17
Respiratory tract infection: Affected/At Risk (%): (5.88%)
Restless legs syndrome: # Events: 0
Restless legs syndrome: Affected/At Risk: 0/17
Restless legs syndrome: Affected/At Risk (%): (0%)
Rosacea: # Events: 0
Rosacea: Affected/At Risk: 0/17
Rosacea: Affected/At Risk (%): (0%)
SAE Abdominal wall haematoma, # events: 0
SAE Abdominal wall haematoma, affected/at risk: 0/17
SAE Acute kidney injury, # events: 0
SAE Acute kidney injury, affected/at risk: 0/17
SAE Acute lymphocytic leukaemia recurrent, # events: 0
SAE Acute lymphocytic leukaemia recurrent, affected/at risk: 0/17
SAE Acute respiratory failure, # events: 1
SAE Acute respiratory failure, affected/at risk: 1/17
SAE Anaphylactic reaction, # events: 1
SAE Anaphylactic reaction, affected/at risk: 1/17
SAE Bacteraemia, # events: 0
SAE Bacteraemia, affected/at risk: 0/17
SAE Cardiac arrest, # events: 0
SAE Cardiac arrest, affected/at risk: 0/17
SAE Cellulitis, # events: 0
SAE Cellulitis, affected/at risk: 0/17
SAE Chronic graft versus host disease in skin, # events: 0
SAE Chronic graft versus host disease in skin, affected/at risk: 0/17
SAE Citrobacter infection, # events: 0
SAE Citrobacter infection, affected/at risk: 0/17
SAE Dyspnoea, # events: 0
SAE Dyspnoea, affected/at risk: 0/17
SAE Embolism, # events: 0
SAE Embolism, affected/at risk: 0/17
SAE Febrile neutropenia, # events: 0
SAE Febrile neutropenia, affected/at risk: 0/17
SAE Graft versus host disease in lung, # events: 0
SAE Graft versus host disease in lung, affected/at risk: 0/17
SAE Hypoxia, # events: 0
SAE Hypoxia, affected/at risk: 0/17
SAE Influenza A virus test positive, # events: 1
SAE Influenza A virus test positive, affected/at risk: 1/17
SAE Influenza like illness, # events: 0
SAE Influenza like illness, affected/at risk: 0/17
SAE Lacunar infarction, # events: 0
SAE Lacunar infarction, affected/at risk: 0/17
SAE Leukaemia recurrent, # events: 0
SAE Leukaemia recurrent, affected/at risk: 0/17
